The results in this text go back to ChEMBL document CHEMBL1131956, “Nucleomimetic strategy for the inhibition of HIV-1 nucleocapsid protein NCp7 activities” (1999).

Experiment [1] concerns the target Human immunodeficiency virus type 1 reverse transcriptase (Human immunodeficiency virus 1) (UniProt Q72547). Briefly: Reverse transcriptase activity using an HIV-1 infected cell line at 10 micro M concentration.
Experiment [2] deals with Human immunodeficiency virus 1. Briefly: Affinity for HIV-1 Nucleocapsid Protein (12-53)NCp7 was determined. The format is functional.

As usually defined, the inhibition is the percentage by which the read-out fell short of the control. Low values mean a weak effect, high ones a strong effect. In the case of `Cc1cn(C2CC(CC(=O)NC3OC(n4cnc5c(O)nc(N)nc54)CC3O)C(CO)O2)c(=O)[nH]c1=O` (configuration not stated), the inhibition in experiment [1] is 20%.

In experiment [2], `Cc1cn(C2CC(O)C(NC(=O)CC3CC(n4cnc5c(O)nc(N)nc54)OC3CO)O2)c(=O)[nH]c1=O` (configuration not stated) yielded an Affinity of 9 M⁻¹.
